Legend:
[1] = target: T1, Bsu Smc (Smc dimer without ScpAB) (Bacillus subtilis, UniProt P51834); assay: coupled ATPase assay, ATP titration; type: biochemical; details: wild-type Smc, no DNA, pH 7.5, 2 mM MgCl2, 25 °C
T1 construct: full-length native (untagged) Smc, expressed in E. coli BL21-Gold (DE3) from pET-22/pET-28; homodimer
T1 sequence (P51834 1-1186): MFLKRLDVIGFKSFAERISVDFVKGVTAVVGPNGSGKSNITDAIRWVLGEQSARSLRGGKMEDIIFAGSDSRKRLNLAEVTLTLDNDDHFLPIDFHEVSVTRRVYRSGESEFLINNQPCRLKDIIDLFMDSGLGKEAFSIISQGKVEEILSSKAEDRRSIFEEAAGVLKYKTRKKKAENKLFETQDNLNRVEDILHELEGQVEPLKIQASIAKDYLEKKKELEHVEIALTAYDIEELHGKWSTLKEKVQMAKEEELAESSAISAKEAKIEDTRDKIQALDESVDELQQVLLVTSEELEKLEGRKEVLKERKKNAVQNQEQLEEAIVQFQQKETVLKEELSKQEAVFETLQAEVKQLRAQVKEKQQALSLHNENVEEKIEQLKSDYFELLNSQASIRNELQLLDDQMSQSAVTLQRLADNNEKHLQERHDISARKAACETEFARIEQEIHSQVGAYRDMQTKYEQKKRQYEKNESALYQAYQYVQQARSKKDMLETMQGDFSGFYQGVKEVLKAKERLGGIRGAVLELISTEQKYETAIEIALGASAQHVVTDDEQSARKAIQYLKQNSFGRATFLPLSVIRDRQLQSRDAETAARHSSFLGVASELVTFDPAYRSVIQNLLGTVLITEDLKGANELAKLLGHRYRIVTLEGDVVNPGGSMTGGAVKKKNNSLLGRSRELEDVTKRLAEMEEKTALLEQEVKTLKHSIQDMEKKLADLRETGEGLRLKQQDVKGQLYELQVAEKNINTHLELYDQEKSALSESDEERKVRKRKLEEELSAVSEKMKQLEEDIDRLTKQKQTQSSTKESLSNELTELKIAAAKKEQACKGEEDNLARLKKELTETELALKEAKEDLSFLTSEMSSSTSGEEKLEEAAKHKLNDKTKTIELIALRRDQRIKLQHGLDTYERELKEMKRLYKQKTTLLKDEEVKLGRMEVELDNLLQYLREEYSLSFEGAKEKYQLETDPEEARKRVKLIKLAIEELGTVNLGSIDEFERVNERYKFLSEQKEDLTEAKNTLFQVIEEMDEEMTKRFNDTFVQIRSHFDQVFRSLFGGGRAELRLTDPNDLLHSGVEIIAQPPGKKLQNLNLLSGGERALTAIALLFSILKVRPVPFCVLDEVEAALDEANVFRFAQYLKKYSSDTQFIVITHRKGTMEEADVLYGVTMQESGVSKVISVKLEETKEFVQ

[2] = target: T2, Smc-ScpAB holo-complex (Bacillus subtilis, UniProt P51834); assay: coupled ATPase assay, ATP titration; type: biochemical; details: wild-type Smc with ScpAB, pH 7.5, 2 mM MgCl2, 25 °C
T2 construct: full-length native (untagged) Smc, ScpA and ScpB purified separately from E. coli and mixed stoichiometrically; with Segregation and condensation protein A; Segregation and condensation protein B
T2 sequence (P51834 1-1186): T1 sequence (P51834 1-1186)
T2 sequence (P35154 1-251 partner): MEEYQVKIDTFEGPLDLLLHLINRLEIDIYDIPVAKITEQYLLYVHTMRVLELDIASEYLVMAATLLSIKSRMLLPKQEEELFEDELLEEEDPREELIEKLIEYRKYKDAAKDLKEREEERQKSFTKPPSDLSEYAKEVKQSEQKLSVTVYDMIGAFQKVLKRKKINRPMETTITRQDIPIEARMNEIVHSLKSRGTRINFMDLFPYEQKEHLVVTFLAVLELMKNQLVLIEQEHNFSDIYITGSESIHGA
T2 sequence (P35155 1-197 partner): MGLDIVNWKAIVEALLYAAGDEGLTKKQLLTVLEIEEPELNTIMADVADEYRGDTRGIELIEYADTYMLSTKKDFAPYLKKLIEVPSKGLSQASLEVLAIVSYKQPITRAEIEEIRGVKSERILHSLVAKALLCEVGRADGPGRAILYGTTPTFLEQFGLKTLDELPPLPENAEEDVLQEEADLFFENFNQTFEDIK

Nc1ncnc2c1ncn2[C@@H]1O[C@H](COP(=O)(O)OP(=O)(O)OP(=O)(O)O)[C@@H](O)[C@H]1O [ATP]
coupled ATPase assay, ATP titration [1]: Measurement of ATP hydrolysis rates for Smc protein (wt), Smc(G302W) and Smc(G302E) | coupled ATPase assay, ATP titration [2]: increasing concentrations of ATP and in the absence or presence of dsDNA40 and ScpAB

Reference: article doi:10.1101/2021.01.21.427566v1, “Gradual opening of Smc arms in prokaryotic condensin” (biorxiv, 2021)
